According to patent US20230285556A1, “METHODS AND COMPOSITIONS FOR TREATING CANCER” (Omeros Corporation, priority 2021, published 2023):

Legend:
[1] = test system: EG7 tumors; test: Example 7: adoptive transfer of inhibitor-precultured OT-1 T cells into EG7 tumor-bearing mice; assay type: in vivo, mouse
Method: (§1) and the following individual conditions: • 1. DMSO vehicle control • 2. 0.2 μM doramapimod • 3. 500 μM Rp-8-Br-cAMPS • 4. 0.2 μM doramapimod+500 μM Rp-8-Br-cAMPS
On day 6 cells were seeded in 6-well plates with […] per well, and on day 8 cells were seeded in T75 flasks in 30 mL media to obtain enough cells to transfer into EG7 tumor-bearing mice.
C57BL/6 female mice were implanted with 6 million EG7 tumor cells subcutaneously on day 4 of the OT-1 T cell expansion. On day 6 of tumor growth (day 10 of OT-1 T cell expansion) OT-1 T cells were washed and injected retro-orbitally into tumor bearing mice that had been sorted into 4 groups with equal tumor volume distributions (n=8). Via retroorbital injection, mice received 2 million OT1 T cells of each of the 4 culture conditions. Tumor volume (mm^3) was calculated as 0.5×(length×width^2), where length represents the largest tumor diameter and width represents the perpendicular tumor diameter. Mice were euthanized when the sum of the two measurements exceeded 30 mm.

[2] = test system: OT-I TCR transgenic CD8 T cells; test: Example 6: OT-I CD8 T cell expansion with PKA and p38 inhibitors, IL-2 after restimulation with EG7 cells; assay type: cell-based, mouse; conditions: 0.2 μM doramapimod, 500 μM Rp-8-Br-cAMPS
Method: as §1
On day 8, cells were immunophenotyped with the following antibodies: anti-CD8 BV570, anti-CD62L eFluor450, anti-TCF1/TCF7 PE, anti-CD39 PerCP-eFluor710, anti-CD69 BV605, anti-PD-1 BV711, anti-CTLA-4 APC, and LIVE/DEAD™ Fixable Green Dead Cell Stain.
(§2) After overnight culture, supernatants were harvested and analyzed for IL-2 content (MesoScale Discovery).

[3] = test system: human CD8 T cells; test: Example 4: human CD8 T cell expansion with GPR174, A2A, PKA or EPAC inhibitors, IL-2 after restimulation; assay type: cell-based; conditions: for IL-2 production following restimulation, fold increase vs vehicle (FIG. 6): 300 nM Compound #10, 100 nM ZM-241385, 500 μM Rp-8-Br-cAMPS, 5 μM ESI-09, 5.5 hours restimulation
Method: Purified human CD8 T cells were cultured in 24-well plates with the following conditions per well: • 2 mL X-VIVO™ 15 media (Lonza) • 0.4 million human CD8 T cells (Donor A) • 2 million Human T-Activator CD3/CD28 Dynabeads® (ThermoFisher) • 10 ng/mL human IL-7 (R&D Systems) • 10 ng/mL human IL-15 (R&D Systems)
and the following individual conditions, ±300 nM Compound #10: • 1. DMSO vehicle control • 2. […] 500 μM Rp-8-Br-cAMPS • 4. 5 μM ESI-09
On days 3, 5, and 7, cultures were washed and seeded at 0.5 cells million per well with the same small molecule inhibitor conditions, and with IL-7 and IL-15.
After 5.5 hours of culture, supernatants were harvested and analyzed for IL-2 content (MesoScale Discovery).

[4] = test system: human CD8 T cells; test: Example 5: T cell number increase during 10-day expansion; assay type: cell-based
Method: (§3) DMSO vehicle control • 2. […] 500 μM Rp-8-Br-cAMPS • 4. […] 0.5 μM doramapimod • 6. Media control
(§4) or the following individual conditions for the experiment shown in FIG. 8, each ±0.5 μM doramapimod: • 1. DMSO vehicle control • 2. 500 μM Rp-8-Br-cAMPS • 3. […] 5 μM ESI-09
(§5) On days 3, 5, and 7, cultures were washed and seeded at 0.5 cells million per well with the same small molecule inhibitor conditions, and with IL-7 and IL-15. On day 10, cells were washed twice (12 mL media each), and restimulated in quadruplicate in 96-well round-bottom plates with the following conditions: • 0.1 mL X-VIVO™ 15 media (Lonza) • 0.05 million cells from each condition • 0.1 million Human T-Activator CD3/CD28 Dynabeads® (ThermoFisher)

[5] = test system: human CD8 T cells; test: Example 5: human CD8 T cell expansion with cAMP pathway and p38 inhibitors, IL-2 after restimulation; assay type: cell-based; conditions: 500 μM Rp-8-Br-cAMPS, 0.5 μM doramapimod
Method: as §3, §4, §5, §2

[6] = test system: OT-I TCR transgenic CD8 T cells; test: Example 8: OT-I CD8 T cell 9-day expansion with PKA, p38, PI3Kδ inhibitors, IL-2 after restimulation with EG7 cells; assay type: cell-based, mouse
Method: DMSO vehicle control • 2. 0.5 μM doramapimod • 3. 500 μM Rp-8-Br-cAMPS • 4. 0.5 μM doramapimod+500 μM Rp-8-Br-cAMPS • 5. 1 μM idelalisib • 6. 1 μM idelalisib+0.5 μM doramapimod • 7. 1 μM idelalisib+500 μM Rp-8-Br-cAMPS • 8. 1 μM idelalisib+0.5 μM doramapimod+500 μM Rp-8-Br-cAMPS
On days 2, 4, 6, and 8, cells were counted, washed and reseeded at 0.5 million per well in 2 mL media with the same 8 conditions and with recombinant mouse IL-2 and IL-7 (5 ng/mL each). […] Cells were also washed three times (12 mL media each), and restimulated in quintuplicate in 96-well round-bottom plates with the following conditions: • 0.1 mL RP10 media • 0.05 million OT-I T cells from each condition • 0.05 million EG7 cells
as §2

[7] = test system: OT-I TCR transgenic CD8 T cells; test: Example 6: immunophenotyping of OT-I T cells on day 8; assay type: cell-based, mouse; conditions: 8 days of culture
Method: as §1
On days 2, 4, 6, and 8, cells were counted, washed, and reseeded at 0.5 million per well in 2 mL media with the same 4 doramapimod/Rp-8-Br-cAMPS conditions and with recombinant mouse IL-2 and IL-7 (5 ng/mL each). On day 8, cells were immunophenotyped with the following antibodies: anti-CD8 BV570, anti-CD62L eFluor450, anti-TCF1/TCF7 PE, anti-CD39 PerCP-eFluor710, anti-CD69 BV605, anti-PD-1 BV711, anti-CTLA-4 APC, and LIVE/DEAD™ Fixable Green Dead Cell Stain.

[8] = test system: human CD8 T cells; test: Example 2: flow cytometry phenotype clusters (FlowSOM) of expanded human CD8 T cells; assay type: cell-based; conditions: 10-day culture; relative to vehicle control
Method: (§6) Purified human CD8 T cells were cultured in 24-well plates according to the following conditions per well: • 1 mL X-VIVO™ 15 media (Lonza) • 1 million human CD8 T cells • 2 million Human T-Activator CD3/CD28 Dynabeads® (ThermoFisher)
(§7) and the following individual conditions: • 1. DMSO vehicle control • 2. […] 300 nM GPR174 inhibitor Compound #10 • 4.
(§8) On days 4 and 7, cultures were washed and seeded at 0.5 million cells per well with the same GPR174 and A2A inhibitor conditions, and with 100 U/mL human IL-2.
In addition to restimulation, expanded T cells were characterized by flow cytometry to evaluate expression of CCR7, CD39, CD69, TIGIT, CD45RA, LAG3, T-BET. The following detection reagents were used: anti-CD8 BV510, anti-CCR7 PE-Cy7, anti-CD39 BV605, anti-CD69 BV421, anti-TIGIT eFluor450, anti-CD45RA BV750, anti-LAG3 APC-Cy7, anti-T-BET PE-dazzle594 (all from Biolegend, Invitrogen, or BD Biosciences), and LIVE/DEAD™ Fixable Green Dead Cell Stain (ThermoFisher).
Data was collected with a Cytek Northern Lights flow cytometer, and was analyzed in FlowJo, in which automated clustering was performed on a concatenated file (containing all 4 culture conditions) with the FlowSOM plugin to generate 16 clusters. The abundance of each cluster in each cell sample was exported using the Cluster Explorer plugin.

[9] = test system: OT-I mouse CD8 T cells; test: Example 1: OT-I CD8 T cell 10-day expansion with inhibitors, IL-2 after restimulation with EG7 cells; assay type: cell-based; conditions: 10-day expansion with IL-7+IL-15; 300 nM Compound #10, 100 nM ZM-241385; restimulated with EG7 cells without inhibitors, 6 hours
Method: Purified OT-I mouse CD8 T cells (StemCell mouse CD8 T cell purification kit) were cultured in 24-well plates with C57BL/6 mouse splenocytes (pre-treated with mitomycin C to prevent growth) and pOVA according to the following condition per well: • 2 mL RP10 media (RPMI, 10% fetal calf serum, 6 mM L-Glutamine, 12.5 mM HEPES, 50 μM 2-mercaptoethanol, Penicillin, Streptomycin) • 0.2 million OT-I CD8 T cells • 1.4 million mitomycin C treated splenocytes • 100 nM pOVA
and the following individual conditions: • 1. DMSO vehicle control • 2. 300 nM GPR174 inhibitor Compound #10 • 3.
On day 3, cultures were split 1:4 with new media, the inhibitors were added back to original conditions, and mouse IL-7 and mouse IL-15 were added to 10 ng/mL. On days 5 and 8, cells were washed once, counted, and replated at 0.5 million per well with IL-7 and IL-15 and the original inhibitor conditions. On day 10, cells were counted, washed twice with 12 mL RP10, and restimulated in quadruplicate with EG7 cells (H-2 K^b thymoma expressing OVA) in 96-well round bottom plates according to the following conditions: • 0.2 mL RP10; • 0.1 million OT-I T cells from each T cell expansion condition; and • 0.5 million EG7 cells.
Supernatants were collected after 6 hours and assayed for IL-2 levels (MesoScale Discovery platform).

[10] = test system: human CD8 T cells; test: Example 3: human CD8 T cell 10-day expansion with IL-7+IL-15 and inhibitors, IL-2 after restimulation; assay type: cell-based; conditions: for IL-2 production following restimulation, fold vs vehicle control (FIG. 4): 300 nM Compound #10, 100 nM ZM-241385, 18 hours restimulation; for IL-2 production following restimulation, fold vs vehicle (FIG. 5): 300 nM Compound #10, 500 nM Compound #49, 100 nM ZM-241385, 18 hours restimulation
Method: Purified human CD8 T cells were cultured in 24-well plates with the following conditions per well: • 2 mL X-VIVO™ 15 media (Lonza) • 1 million human CD8 T cells • 2 million Human T-Activator CD3/CD28 Dynabeads® (ThermoFisher) • 10 ng/mL human IL-7 (R&D Systems) • 10 ng/mL human IL-15 (R&D Systems)
and the following individual conditions for FIG. 4: • 1. DMSO vehicle control • 2. […] 300 nM GPR174 inhibitor Compound #10 • 4.
On days 4 and 7 (FIG. 4) or days 3, 5, and 7 (FIG. 5), cultures were washed and seeded at 0.5 cells million per well with the same GPR174 and A2A inhibitor conditions, and with 10 ng/mL IL-7 and 10 ng/mL IL-15.
After 18 hours of culture, supernatants were harvested and analyzed for IL-2 (MesoScale Discovery).

[11] = test system: human CD8 T cells; test: Example 2: human CD8 T cell 10-day expansion with IL-2 and inhibitors, IL-2 after CD3/CD28 restimulation; assay type: cell-based; conditions: 300 nM Compound #10, 100 nM ZM-241385, CD3/CD28 bead restimulation 7 hours
Method: as §6, §7, §8
After 7 hours of culture, supernatants were harvested and analyzed for IL-2 (MesoScale Discovery).

Row | Compound | tumor growth / tumor volume after transfer of precultured OT-1 T cells ([1]; 2 million OT-1 T cells expanded 10 days with 0.2 μM doramapimod and/or 500 μM Rp-8-Br-cAMPS, retro-orbital, relative to vehicle control cells) | survival of tumor-bearing mice ([1]; OT-1 T cells precultured with inhibitor(s), relative to vehicle group) | IL-2 production from 8-day OT-I cultures, fold vs vehicle control ([2]; day 8 restimulation with EG7 cells) | IL-2 production from 10-day OT-I cultures, fold over vehicle control ([2]; day 10 restimulation with EG7 cells) | IL-2 production following restimulation, fold increase vs vehicle (FIG. 6) [3] | T cell growth during the 10-day culture relative to vehicle-treated cells (FIG. 8) [4] | fold-increase in T cell number during the 10-day expansion (FIG. 7) ([4]; vehicle and media controls approximately 50-fold) | IL-2 production following restimulation, fold above vehicle control (FIG. 8) ([5]; 10 μM HJC-0197, 5 μM ESI-09) | IL-2 production following restimulation, fold vs vehicle (FIG. 7) ([5]; GPR174+A2A inhibitors, overnight restimulation) | Fold-change in IL-2 production relative to Vehicle control ([6]; Idelalisib (agent together with 1 μM idelalisib)) | Fold-change in IL-2 production relative to Vehicle control ([6]; column Vehicle (without idelalisib), 0.5 μM doramapimod, 500 μM Rp-8-Br-cAMPS) | downregulation of CTLA-4 [7] | increase in cells expressing both CD62L and TCF1/TCF7 relative to vehicle control [7] | percentage of OT-I T cells expressing both CD39 and CD69 ([7]; vehicle 22%) | T cell phenotype clusters enriched or reduced (CD39, CD69, TIGIT, T-BET, LAG3, CCR7, CD45RA) [8] | IL-2 production following restimulation, effect in the presence of Rp-8-Br-cAMPS (FIG. 6) ([3]; 300 nM Compound #10 added to 500 μM Rp-8-Br-cAMPS) | IL-2 production following restimulation, fold above Vehicle [9] | IL-2 production following restimulation, fold vs vehicle control (FIG. 4) [10] | IL-2 production following restimulation, fold vs vehicle (FIG. 5) [10] | IL-2 production upon restimulation, fold increase vs vehicle [11]
1 | Nc1ncnc2c1nc(Br)n2[C@@H]1O[C@@H]2COP([O-])(=S)O[C@H]2[C@H]1O.[Na+] (single isomer, unassigned) [Rp-8-Br-cAMPS, 8-Br-cAMPS, Rp-isomer] | significantly halted and delayed tumor growth | intermediate survival times | 5.3 fold | 18 fold | 3.7 fold | ~2 fold | 170 fold | 2 fold | 3.6 fold | 89.9 | 1.6 | particularly effective at downregulating CTLA-4 | smaller increases | smaller reductions |  |  |  |  |  | 
2 | CC1CCN(c2cc(N3CCN(S(=O)(=O)c4ccccc4)CC3)c([N+](=O)[O-])cc2F)CC1 [Compound 10] |  |  |  |  | negligible effect |  |  |  |  |  |  |  |  |  | displayed this same trend, albeit to a lesser degree | did not enhance IL-2 production | 1.8 fold | 3 fold | approximately 1.3 fold | 1.7 fold
3 | Nc1nc(NCCc2ccc(O)cc2)nc2nc(-c3ccco3)nn12 [ZM-241385, ZM 241385] |  |  |  |  | negligible effect |  |  |  |  |  |  |  |  |  | relatively unchanged |  |  | negligible | approximately 1.3 fold | did not alter IL-2 production
